Source: PubChem BioAssay AID489023 (Sanford-Burnham Center for Chemical Genomics, 2010)
Active and inactive are the calls of the source. No rule for the calls is given here.

These compounds were tested on 697B cells, BCR-induced NF-kB luciferase reporter luminescence (assay: inhibitors of BCR-induced NF-kB activation, dose response, 697B cells, luciferase luminescence (AID 489023)).

Row | Compound | IC50
1 | COc1ccc(/C=C/c2ccccc2)cc1[C@H]1[C@H]2C=CC[C@@H](C)[C@@H]2C(=O)N1Cc1ccccc1 | > 80 µM (inactive)
2 | CCc1ccc(-c2nnn(CCC(=O)OC)n2)cc1 | 5.46 µM
3 | Cc1csc(NC(=O)CCc2c(C)nc3cc(-c4ccc(Cl)cc4)nn3c2C)n1 | 4.77 µM
4 | COc1ccc(/C=C2/SC(=S)N(CCC(=O)O)C2=O)cc1 | 2.46 µM
5 | CN(C)C(=O)CCc1nc(-c2ccc(C(C)(C)C)cc2)no1 | 18.8 µM
6 | Cc1cc(=O)[nH]c2c(C)cc(S(=O)(=O)N3CCCCC3)cc12 | > 80 µM (inactive)
7 | O=C(O)CCSc1ncnc2sc(-c3ccccc3)cc12 | 2.29 µM
8 | Cc1ccc(C2(c3ccc(C)cc3)CC2C(=O)Nc2ccc([N+](=O)[O-])cc2O)cc1 (stereo not given) | 73.4 µM (inactive)
9 | N=c1ccn(Cc2ccccc2Cl)cc1 | > 80 µM (inactive)
10 | Cc1nn(-c2ccc(N3CCCCC3)nn2)c(C)c1CCC(=O)Nc1ccccc1F | > 80 µM (inactive)
11 | C/C(=N\Nc1nc(Nc2ccccc2)nc(N2CCOCC2)n1)c1cccs1 | 8.71 µM
12 | COc1ccc(NC(=O)c2cc(-c3ccccn3)nc3ccccc23)cc1S(=O)(=O)N(C)C | 7.8 µM
13 | C=CCn1c(O)c(C(CC)=NC(C)c2ccccc2)c(=O)[nH]c1=O (stereo not given) | 56.4 µM (inactive)
14 | Cc1ccc(O)c(NC(=O)COc2cc(C)ccc2C)c1 | > 80 µM (inactive)
15 | Cc1ccc(C(=O)CSc2nnc(COc3cc(C)cc(C)c3)o2)cc1 | > 80 µM (inactive)
16 | COc1ccc(-c2nc(CSCC(=O)NCc3ccco3)c(C)o2)cc1 | 9.47 µM
17 | Nc1ccccc1SCC(=O)Nc1nc(-c2ccccc2)cs1 | > 80 µM (inactive)
18 | Cc1ccc(-n2c(-c3ccccc3)c[n+]3c2CCc2ccccc2-3)c(C)c1 | 56.7 µM (inactive)
19 | CC(=O)C1=NN(c2ccccc2)C(c2cccs2)N1c1ccc(N(C)C)cc1 (stereo not given) | 31.7 µM (inactive)
20 | O=C(Oc1cccc(/C=N/Nc2nc(Nc3ccccc3)nc(N3CCOCC3)n2)c1)c1ccco1 | 2.99 µM
21 | CCC(=O)N1c2ccccc2C(N(C(C)=O)c2ccccc2)CC1C (stereo not given) | 61 µM (inactive)
22 | CCSc1ncc(Cl)c(C(=O)Nc2sc3c(c2C(=O)NCc2cccnc2)CCCC3)n1 | > 80 µM (inactive)
23 | CCOc1ccc(-c2cc(CCCC(=O)NCCCOC)no2)cc1 | > 80 µM (inactive)
24 | Cc1c(CCC(=O)NCCCn2ccnc2)c(=O)oc2c(C)c3oc4c(c3cc12)CCCC4 | 30.4 µM (inactive)
25 | CC(C)(C)c1ccc(-c2noc(CCC(=O)NCC3CCCO3)n2)cc1 (stereo not given) | 0.21 µM

Row | Compound | IC50
26 | O=C(Cc1cccc2ccccc12)Nc1ccc(-c2cc3ccccc3oc2=O)cc1 | < 0.16 µM
27 | Cc1cc(NC(=O)CCCN2C(=O)/C(=C/c3ccccc3Cl)SC2=S)no1 | 8.86 µM
28 | Cc1csc(NC(=O)/C=C/c2ccc3c(c2)OCO3)n1 | 6.13 µM
29 | COc1ccc(C(=O)Nc2ccc(OC)c([N+](=O)[O-])c2)cc1Br | > 80 µM (inactive)
30 | COc1ccc(NC(=O)CN(C)C(=O)C2(c3ccccc3)CCCC2)cc1 | 3.56 µM
31 | CC1=CC(C)(C)Nc2ccc(OC(=O)c3ccco3)cc21 | 8.24 µM
32 | COc1ccc(OCc2cccc(C(=O)NN)c2)cc1 | 2.43 µM
33 | CC(C)(C)c1ccc(-c2nnc(SCC(=O)NC3CC3)o2)cc1 | > 80 µM (inactive)
34 | Cn1nc(-c2ccc(Cl)cc2)c2cc(C(=O)N3CCCC3)sc21 | > 80 µM (inactive)
35 | COc1cc(/C(C)=N\NC(N)=S)cc(OC)c1OC | 70.7 µM (inactive)
36 | CCc1ccc2[nH]c3nc(N/N=C/c4cccc(O)c4)nnc3c2c1 | > 80 µM (inactive)
37 | CCN(CC(=O)Nc1c(F)cccc1F)C(=O)c1cc([N+](=O)[O-])ccc1N1CCCCC1 | 13.6 µM
38 | COc1ccc(C(=O)Nc2nnc(SCC(=O)Nc3ccc(NC(C)=O)cc3)s2)c(OC)c1 | > 80 µM (inactive)
39 | Cc1nnc2c3ccccc3c(-c3ccccc3)nn12 | > 80 µM (inactive)
40 | O=C(CCCN1C(=O)/C(=C/c2ccccc2Cl)SC1=S)NNC(=O)c1ccncc1 | 25.7 µM (inactive)
41 | COc1cccc(-c2noc(CCC(=O)NCCc3ccccc3)n2)c1 | 5.65 µM
42 | COc1ccc(/C=N/OCC(=O)NC(c2ccccc2)c2ccccc2)cc1OC | > 80 µM (inactive)
43 | CCC(CC)C(=O)Nc1ccc(Sc2ccc([N+](=O)[O-])cc2)cc1 | 32.2 µM (inactive)
44 | COC(=O)[C@@]12OC[C@]34[C@H]([C@@H](O)[C@@H]1O)[C@@]1(C)C(=O)C(O[C@@H]5OC(CO)[C@@H](O)[C@@H](O)[C@@H]5O)=C[C@@H](C)[C@@H]1C[C@H]3OC(=O)[C@H](OC(=O)/C=C(\C)C(C)(C)OC(C)=O)[C@@H]24 (stereo not given in full) | 0.42 µM
45 | C=C(C)[C@@H]1CCC2(C(=O)O)CC[C@]3(C)[C@H](CC[C@@H]4[C@@]5(C)CCC(=O)C(C)(C)[C@@H]5CC[C@]43C)[C@@H]12 (stereo not given in full) | 71.6 µM (inactive)
46 | CN(C)c1cc[n+](Cc2c(Cl)cccc2Cl)cc1 | > 80 µM (inactive)
47 | O=c1cccc2c1c1cc[nH]c3ccc(=O)n2c31 | 2.1 µM
48 | CCN(CC(=O)Nc1c(F)cccc1F)C(=O)c1cc(S(=O)(=O)N(CC)CC)ccc1N1CCCCC1 | 4.04 µM
49 | CC(=O)Nc1ccc(Nc2nc(-c3sc(NC(C)=O)nc3C)cs2)cc1 | 2.12 µM
50 | N=c1c2c(n(Cc3ccc(Cl)cc3Cl)c3c1CCC3)CCCC2 | 40.3 µM (inactive)
